Results taken from publication PMC2801349 (Bioorganic & medicinal chemistry letters, 2009).

How the values were obtained:
mGlu3 = mGlu3 (Homo sapiens, UniProt Q14832); test: Selectivity versus additional mGlus; assay type: cell-based
mGlu4 = mGlu4 (Homo sapiens, UniProt Q14833); test: Selectivity versus additional mGlus; assay type: cell-based
mGlu8 = mGlu8 (Homo sapiens, UniProt O00222); test: Selectivity versus additional mGlus; assay type: cell-based
mGlu7 = mGlu7 (Homo sapiens, UniProt Q14831); test: Selectivity versus additional mGlus; assay type: cell-based
mGlu7, sequence (Q14831 35-915): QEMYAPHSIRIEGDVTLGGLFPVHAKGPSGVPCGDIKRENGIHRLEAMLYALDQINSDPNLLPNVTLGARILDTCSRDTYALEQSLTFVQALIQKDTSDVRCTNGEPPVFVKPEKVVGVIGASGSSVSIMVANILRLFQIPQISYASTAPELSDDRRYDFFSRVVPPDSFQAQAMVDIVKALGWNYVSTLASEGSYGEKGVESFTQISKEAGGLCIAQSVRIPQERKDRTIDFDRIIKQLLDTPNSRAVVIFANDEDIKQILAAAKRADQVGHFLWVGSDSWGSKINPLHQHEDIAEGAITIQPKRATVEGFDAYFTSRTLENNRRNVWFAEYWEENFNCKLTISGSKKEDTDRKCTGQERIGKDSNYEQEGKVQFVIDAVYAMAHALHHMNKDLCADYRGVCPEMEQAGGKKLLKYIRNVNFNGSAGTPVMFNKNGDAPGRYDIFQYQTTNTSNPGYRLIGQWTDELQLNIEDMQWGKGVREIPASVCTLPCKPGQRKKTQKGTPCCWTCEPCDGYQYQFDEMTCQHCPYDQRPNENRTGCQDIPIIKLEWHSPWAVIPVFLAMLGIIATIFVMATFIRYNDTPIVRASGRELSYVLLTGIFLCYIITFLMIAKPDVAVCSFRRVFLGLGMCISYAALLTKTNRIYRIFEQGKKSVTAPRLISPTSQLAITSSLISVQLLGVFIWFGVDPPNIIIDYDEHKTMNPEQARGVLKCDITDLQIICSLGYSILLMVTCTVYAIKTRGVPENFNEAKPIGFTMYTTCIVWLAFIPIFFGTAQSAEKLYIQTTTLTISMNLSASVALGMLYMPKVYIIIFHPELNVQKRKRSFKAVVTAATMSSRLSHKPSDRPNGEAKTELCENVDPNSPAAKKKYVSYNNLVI

mGlu2 = mGlu2 (Homo sapiens, UniProt Q14416); test: Selectivity versus additional mGlus; assay type: cell-based
EGFR = conditions: read-out: EGFR autophosphorylation IC50; A431 cells; cited from earlier work
rat mGlu5 = rat mGlu5 (Rattus norvegicus, UniProt P31424); test: Calcium mobilization mGlu5 assay; assay type: cell-based; conditions: for fold reduction of mGlu5 potency, secondary amine to ether: 26 relative to 13, 29 relative to 4
rat mGlu5, sequence (P31424 21-1203): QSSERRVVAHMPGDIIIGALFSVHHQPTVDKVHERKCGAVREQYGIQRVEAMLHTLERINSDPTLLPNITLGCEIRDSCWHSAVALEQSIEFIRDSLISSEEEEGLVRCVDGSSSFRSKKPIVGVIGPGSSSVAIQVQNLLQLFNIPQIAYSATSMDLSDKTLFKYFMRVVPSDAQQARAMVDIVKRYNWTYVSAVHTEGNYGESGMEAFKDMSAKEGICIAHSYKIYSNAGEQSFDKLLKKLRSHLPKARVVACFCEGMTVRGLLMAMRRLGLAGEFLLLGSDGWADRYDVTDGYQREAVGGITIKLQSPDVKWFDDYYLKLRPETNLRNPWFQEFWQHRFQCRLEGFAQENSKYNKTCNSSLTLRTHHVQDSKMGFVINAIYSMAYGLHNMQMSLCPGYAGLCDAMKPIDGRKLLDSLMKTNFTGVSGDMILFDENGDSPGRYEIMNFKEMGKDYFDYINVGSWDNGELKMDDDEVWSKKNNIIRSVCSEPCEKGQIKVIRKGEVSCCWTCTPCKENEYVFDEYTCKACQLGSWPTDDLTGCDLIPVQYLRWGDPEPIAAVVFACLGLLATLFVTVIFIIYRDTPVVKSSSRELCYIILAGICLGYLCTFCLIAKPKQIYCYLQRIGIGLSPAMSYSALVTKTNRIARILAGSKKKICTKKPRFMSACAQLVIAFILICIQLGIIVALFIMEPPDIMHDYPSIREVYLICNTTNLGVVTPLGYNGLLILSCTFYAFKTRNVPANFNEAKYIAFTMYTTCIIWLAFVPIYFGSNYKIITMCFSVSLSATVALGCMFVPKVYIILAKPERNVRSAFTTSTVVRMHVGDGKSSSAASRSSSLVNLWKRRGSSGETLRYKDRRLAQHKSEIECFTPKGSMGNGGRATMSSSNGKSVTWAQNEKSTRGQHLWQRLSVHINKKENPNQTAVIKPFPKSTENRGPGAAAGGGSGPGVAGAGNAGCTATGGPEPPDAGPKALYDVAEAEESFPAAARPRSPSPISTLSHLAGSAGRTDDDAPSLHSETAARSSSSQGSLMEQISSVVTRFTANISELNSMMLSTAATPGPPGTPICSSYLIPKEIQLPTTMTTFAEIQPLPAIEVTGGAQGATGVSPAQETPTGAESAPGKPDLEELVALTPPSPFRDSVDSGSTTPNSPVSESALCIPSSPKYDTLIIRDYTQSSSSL

mGlu3, sequence (Q14832 23-879): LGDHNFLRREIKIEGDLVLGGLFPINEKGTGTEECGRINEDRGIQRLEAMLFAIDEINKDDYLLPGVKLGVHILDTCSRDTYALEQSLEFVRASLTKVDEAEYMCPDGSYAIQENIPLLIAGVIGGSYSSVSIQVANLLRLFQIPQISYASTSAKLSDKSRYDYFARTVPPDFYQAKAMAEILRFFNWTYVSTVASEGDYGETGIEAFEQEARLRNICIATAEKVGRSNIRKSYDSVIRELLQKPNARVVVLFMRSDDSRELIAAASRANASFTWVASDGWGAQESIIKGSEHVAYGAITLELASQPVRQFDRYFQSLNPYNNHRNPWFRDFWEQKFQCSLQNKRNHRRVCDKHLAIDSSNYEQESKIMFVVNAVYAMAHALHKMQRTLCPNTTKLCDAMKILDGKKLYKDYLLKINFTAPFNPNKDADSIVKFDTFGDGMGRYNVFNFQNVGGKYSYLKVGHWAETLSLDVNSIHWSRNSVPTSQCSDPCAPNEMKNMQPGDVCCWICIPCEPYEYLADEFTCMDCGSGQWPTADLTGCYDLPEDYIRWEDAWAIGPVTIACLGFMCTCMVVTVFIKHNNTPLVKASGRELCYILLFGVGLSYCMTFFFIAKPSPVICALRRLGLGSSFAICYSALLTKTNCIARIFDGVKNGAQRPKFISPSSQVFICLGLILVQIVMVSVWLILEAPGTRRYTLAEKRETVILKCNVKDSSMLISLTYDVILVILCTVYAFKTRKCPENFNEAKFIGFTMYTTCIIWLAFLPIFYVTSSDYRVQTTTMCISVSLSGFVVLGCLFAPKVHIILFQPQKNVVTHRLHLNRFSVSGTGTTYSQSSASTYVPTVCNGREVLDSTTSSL
mGlu8, sequence (O00222 34-908): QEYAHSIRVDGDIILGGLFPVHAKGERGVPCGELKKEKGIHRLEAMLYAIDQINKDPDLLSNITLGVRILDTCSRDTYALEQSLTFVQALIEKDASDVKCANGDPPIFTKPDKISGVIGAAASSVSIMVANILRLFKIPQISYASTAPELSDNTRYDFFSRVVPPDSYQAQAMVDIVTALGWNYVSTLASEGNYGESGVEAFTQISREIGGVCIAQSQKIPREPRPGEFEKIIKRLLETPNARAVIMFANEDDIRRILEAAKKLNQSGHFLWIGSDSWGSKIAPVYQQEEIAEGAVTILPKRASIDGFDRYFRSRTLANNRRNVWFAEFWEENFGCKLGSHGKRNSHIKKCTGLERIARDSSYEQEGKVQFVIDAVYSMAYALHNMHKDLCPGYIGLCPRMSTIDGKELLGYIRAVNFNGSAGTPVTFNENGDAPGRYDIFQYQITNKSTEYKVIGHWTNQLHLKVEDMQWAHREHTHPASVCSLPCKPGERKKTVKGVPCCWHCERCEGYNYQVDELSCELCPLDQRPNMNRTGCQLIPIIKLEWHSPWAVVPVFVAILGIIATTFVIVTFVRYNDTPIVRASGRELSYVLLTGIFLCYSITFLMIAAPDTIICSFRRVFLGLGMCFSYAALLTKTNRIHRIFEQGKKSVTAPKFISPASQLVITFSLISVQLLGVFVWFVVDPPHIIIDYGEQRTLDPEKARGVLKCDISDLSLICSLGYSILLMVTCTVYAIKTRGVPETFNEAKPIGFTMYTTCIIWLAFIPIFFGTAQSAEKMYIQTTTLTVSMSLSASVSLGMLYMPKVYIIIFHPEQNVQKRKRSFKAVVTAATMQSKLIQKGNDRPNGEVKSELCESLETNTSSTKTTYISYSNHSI
mGlu4, sequence (Q14833 33-912): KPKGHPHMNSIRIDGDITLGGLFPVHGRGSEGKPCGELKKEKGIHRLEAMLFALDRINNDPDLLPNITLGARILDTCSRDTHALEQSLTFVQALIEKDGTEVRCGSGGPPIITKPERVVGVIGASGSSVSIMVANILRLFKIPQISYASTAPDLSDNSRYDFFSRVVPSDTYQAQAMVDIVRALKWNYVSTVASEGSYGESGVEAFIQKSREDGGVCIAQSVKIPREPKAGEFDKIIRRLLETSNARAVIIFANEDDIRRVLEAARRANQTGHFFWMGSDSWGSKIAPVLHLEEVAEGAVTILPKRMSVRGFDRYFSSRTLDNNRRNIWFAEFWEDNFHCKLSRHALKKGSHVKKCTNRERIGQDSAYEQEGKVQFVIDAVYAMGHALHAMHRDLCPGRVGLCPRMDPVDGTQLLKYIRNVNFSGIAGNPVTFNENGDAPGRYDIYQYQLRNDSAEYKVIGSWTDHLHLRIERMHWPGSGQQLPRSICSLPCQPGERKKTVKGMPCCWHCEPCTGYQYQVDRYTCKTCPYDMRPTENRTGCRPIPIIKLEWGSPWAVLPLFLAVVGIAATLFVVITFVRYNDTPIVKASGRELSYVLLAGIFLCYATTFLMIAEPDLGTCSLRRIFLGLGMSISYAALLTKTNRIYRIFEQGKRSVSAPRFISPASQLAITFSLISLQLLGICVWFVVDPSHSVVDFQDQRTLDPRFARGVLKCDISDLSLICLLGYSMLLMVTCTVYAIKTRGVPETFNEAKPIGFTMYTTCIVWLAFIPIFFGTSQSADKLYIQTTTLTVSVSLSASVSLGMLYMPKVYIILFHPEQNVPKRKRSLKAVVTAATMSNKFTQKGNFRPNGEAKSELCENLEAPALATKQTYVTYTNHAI

Row | SMILES | activity against mGlu3 (mGlu3) | activity against mGlu4 (mGlu4) | activity against mGlu8 (mGlu8) | activity against mGlu7 (mGlu7) | activity against mGlu2 (mGlu2) | further results
1 | Clc1ccc2ncnc(Nc3cccc(Br)c3)c2c1 [Compound 13] | inactive | inactive | inactive | inactive | inactive | 
2 | Clc1cccc(Nc2ncnc3ccc(Cl)cc23)c1 [Compound 9] |  |  |  |  |  | IC50 (EGFR): 2700 nM
3 | Clc1cccc(Nc2ncnc3ccc(Br)cc23)c1 [Compound 1] | inactive | inactive | inactive | inactive | inactive | 
4 | Brc1cccc(Nc2nccc3ccc(Br)cc23)c1 [Compound 15] |  |  |  |  |  | fold reduction of mGlu5 activity relative to 4 (rat mGlu5; relative to 6-bromoquinazoline comparator 4): approximately 25 fold
5 | CCc1cccc(Nc2ncnc3ccc(F)cc23)c1 [Compound 36] |  |  |  |  |  | % Glu max (rat mGlu5; amplitude of response in the presence of 30 μM test compound as a percentage of maximal response (100 μM glutamate), average of n ≥ 3): weak potentiator
6 | Fc1ccc2ncnc(Nc3cccc(Br)c3)c2c1 [Compound 32] | inactive | inactive | inactive | inactive | inactive | 
7 | Brc1cccc(Oc2ncnc3ccc(Br)cc23)c1 [Compound 29] |  |  |  |  |  | fold reduction of mGlu5 potency, secondary amine to ether (rat mGlu5): more than 50 fold
8 | FC(F)(F)c1cccc(Nc2ncnc3ccc(Br)cc23)c1 [Compound 6] |  |  |  |  |  | fold less potent at mGlu5 than 5 (rat mGlu5; relative to 3-methylaniline 5): 7 fold
9 | Clc1ccc2ncnc(Oc3cccc(Br)c3)c2c1 [Compound 26] |  |  |  |  |  | fold reduction of mGlu5 potency, secondary amine to ether (rat mGlu5): more than 50 fold
